{"source": "patent EP2816108A1", "about": "“Transformed fungus with vitamin K dependent activity” (priority 2013, dated 2014)", "key": {"[1]": {"system": "Aspergillus nidulans strain YR 23.5", "assay": "Vitamin K uptake in liquid cultures, viable versus heat-inactivated mycelium", "assay_type": "cell-based", "details": "for Uptake (vitamin K / DW): active minus inactive", "protocol": "Solid Media. Minimal media plates including vitamin K (vitamin K1, Fluka, 99%) were prepared. On top of the agar medium, sterile cellophane was placed to inhibit direct contact between the media and fungal cells. Spores of strain YR23.5 were plated in a concentration of ca. 10E+5 per plate. After 3 days of growth, harvesting was done by scraping off the mycelium from cellophane. Then the mycelium was frozen and pulverized in liquid nitrogen. The powder was subsequently lyophilised and sent for vitamin K analysis to LUFA-ITL (Landwirtschaftliche Untersuchungs- und Forschungsanstalt Institut für Tiergesundheit u Lebensmittelqualität GmbH, Kiel, Germany). Liquid media. The strain YR23.5 was pre-cultivated for 48 hours in 2 x 250 ml of liquid minimal media at 37°C, 180 rpm in Erlenmeyer flasks. Mycelium was harvested by filtration, washed and re-suspended in sterile minimal medium and separated into four equal aliquots of roughly 250 mg wet weight (corresponding to roughly 50 mg dry weight). Culture volume was set to 30 ml. Two of these cultures received different vitamin K amounts, final concentration: 0.5 mg/mL and 0.05 mg/mL vitamin K (Konakion, micelles suspension, Roche, 10 mg/mL) and were grown for further 8 hours. Mock controls were grown in parallel for 8 hours without receiving vitamin K. After the growth phase the fungal cells were inactivated by boiling in the microwave oven (3 x 5 min at max. energy level), and subsequently vitamin K was added to the mock controls (final concentration, 0.5 and 0.05 mg/mL vitamin K). The inactivated cultures were further incubated in the rotary shaker for 30 minutes. All cultures were harvested at the same time point. Harvested biomass was washed, frozen and ground in liquid nitrogen, lyophilised and sent for analysis to LUFA-ITL (Landwirtschaftliche Untersuchungs- und Forschungsanstalt Institut für Tiergesundheit u Lebensmittelqualität GmbH, Kiel, Germany).\nThe vitamin uptake ability of A.nidulans was studied with growth tests in Petri dishes. In addition, vit.K uptake and unspecific resorption of vit.K to the fungal cell wall was analyzed in liquid cultures. According to growth tests in Petri dishes, 752 µg of vitamin K was quantified in 100 mg DW (dry weight) of lyophilized fungal mycelium. However, due to the set-up of this experiment it remains unclear if the vitamin K is either attached to the cell wall or actively taken up into the fungal cell. To clarify this, a second growth test comparing viable and heat-inactivated mycelium was performed. […] The maximal amount of vit.K unspecifically attached to the cell wall is approximately 20 µg per 100 mg (dry weight) of fungal mycelium. The majority of vitamin K was found in viable cells. The viable mycelium was able to take up approximately 8% of the vitamin K supplied through the culture medium (Hill et al.), more precisely 1,14 mg / 100 mg mycelium from the […] vit.K supplied in total (Table 2). Table 2: Vitamin K1 updake ability of Aspergillus nidulans strain YR 23.5. Vitamin K was added to liquid cultures, the final concentration as indicated. Fungal mycelium was inactivated by boiling in a microwave oven. Values which were obtained with inactivated fungal cell mass indicate the unspecific association of vitamin K to the fungal mycelium."}, "[2]": {"system": "Aspergillus nidulans strain YR23.5", "assay": "Vitamin K growth test on solid media (Petri dishes), vitamin K quantified in lyophilised mycelium", "assay_type": "cell-based", "details": "in 100 mg DW (dry weight) of lyophilized fungal mycelium; growth tests in Petri dishes, 3 days", "protocol": "Solid Media. Minimal media plates including vitamin K (vitamin K1, Fluka, 99%) were prepared. On top of the agar medium, sterile cellophane was placed to inhibit direct contact between the media and fungal cells. Spores of strain YR23.5 were plated in a concentration of ca. 10E+5 per plate. After 3 days of growth, harvesting was done by scraping off the mycelium from cellophane. Then the mycelium was frozen and pulverized in liquid nitrogen. The powder was subsequently lyophilised and sent for vitamin K analysis to LUFA-ITL (Landwirtschaftliche Untersuchungs- und Forschungsanstalt Institut für Tiergesundheit u Lebensmittelqualität GmbH, Kiel, Germany). Liquid media. The strain YR23.5 was pre-cultivated for 48 hours in 2 x 250 ml of liquid minimal media at 37°C, 180 rpm in Erlenmeyer flasks. Mycelium was harvested by filtration, washed and re-suspended in sterile minimal medium and separated into four equal aliquots of roughly 250 mg wet weight (corresponding to roughly 50 mg dry weight). Culture volume was set to 30 ml. […]\nThe vitamin uptake ability of A.nidulans was studied with growth tests in Petri dishes. In addition, vit.K uptake and unspecific resorption of vit.K to the fungal cell wall was analyzed in liquid cultures. According to growth tests in Petri dishes, 752 µg of vitamin K was quantified in 100 mg DW (dry weight) of lyophilized fungal mycelium. […]"}}}
{"smiles": "CC1=C(C/C=C(\\C)CCC[C@H](C)CCC[C@H](C)CCCC(C)C)C(=O)c2ccccc2C1=O", "note": "[vitamin K, vitamin K1]", "values": [{"measurement": "Uptake (vitamin K / DW)", "setting": "[1]; fungal cell mass active, vitamin K added 50 µg/ml", "value": "169,1 µg/100 mg"}, {"measurement": "Absolute quantities (vitamin K / DW)", "setting": "[1]; fungal cell mass active, vitamin K added 50 µg/ml, liquid culture, 8 hours", "value": "183,0 µg/100 mg"}, {"measurement": "Uptake (vitamin K / DW)", "setting": "[1]; fungal cell mass active, vitamin K added 500 µg/ml", "value": "1122,1 µg/100 mg"}, {"measurement": "Absolute quantities (vitamin K / DW)", "setting": "[1]; fungal cell mass active, vitamin K added 500 µg/ml, liquid culture, 8 hours, DW = fungal mycelium (dry weight)", "value": "1140,0 µg/100 mg"}, {"measurement": "Absolute quantities (vitamin K / DW)", "setting": "[1]; fungal cell mass inactive (boiled in microwave oven), vitamin K added 50 µg/ml, unspecific association with mycelium", "value": "13,9 µg/100 mg"}, {"measurement": "Absolute quantities (vitamin K / DW)", "setting": "[1]; fungal cell mass inactive (boiled in microwave oven), vitamin K added 500 µg/ml, unspecific association with mycelium", "value": "17,9 µg/100 mg"}, {"measurement": "maximal amount of vit.K unspecifically attached to the cell wall", "setting": "[1]; per 100 mg (dry weight) of fungal mycelium, inactivated cultures", "value": "approximately 20 µg per 100 mg"}, {"measurement": "vitamin K taken up of the vitamin K supplied through the culture medium", "setting": "[1]; viable mycelium", "value": "approximately 8%"}, {"measurement": "vitamin K taken up by viable mycelium", "setting": "[1]; viable mycelium, from the 50 mg vit.K supplied in total", "value": "1,14 mg / 100 mg mycelium"}, {"measurement": "vitamin K quantified in lyophilized fungal mycelium", "setting": "[2]", "value": 752, "unit": "µg"}]}
